Data reported in US20200375996A1, “METHOD OF TREATING NEURODEGENERATIVE DISORDERS BY RESCUING ALPHA-SYNUCLEIN TOXICITY” (D.E. Shaw Research, LLC, priority 2015, published 2020).

What was measured:
Sna3-GFP = assay: Immunoblot analysis of Sna3-GFP polyubiquitination in WT and α-syn cells; format: cell-based, yeast; conditions: FIG. 11B
Method: (§1) Protein analysis was performed in NoTox and HiTox strains with the compound treatment at indicated concentrations. Log phase CSM/2% raffinose cultures were induced with 2% galactose for 5 hours with DMSO or the compounds. Cultures were normalized to cell density and cell pellets prepared for SDS-PAGE. Cell pellets were boiled in SDS-loading dye for 15′, centrifuged, and resolved by 4-12% SDS-PAGE. CPY western blots were performed using culture conditions as described above. An anti-Cpy antibody (Invitrogen, A6428) was used at 1:5,000. Post-ER:ER ratios were quantitated using an IRDye800 secondary antibody (Li-Cor Odyssey, Rockland Immunochemicals) and scanned with the Li-Cor Odyssey imaging system. Significance was determined using a one-way ANOVA and Tukey's test of significance. From the same gel, total protein was detected by coomassie staining. Both blots and coomassie-stained gels were scanned using the Li-Cor Odyssey imaging system and quantitated. Significance was determined using a one-way ANOVA with Tukey's test of significance.
In WT Sna3-GFP cells, log phase CSMRaf cultures were shifted to galactose for 5 hours in the presence or absence of the compounds. Cell pellets were lysed in SDS-loading dye and Sna3-GFP cleavage monitored by Western blotting with an anti-GFP antibody. […]

[1] = system: aSyn-expressing yeast cells; assay: Morphological analysis of aSyn-expressing yeast cells; format: cell-based; conditions: 10 uM, galactose induction five hours, FIG. 10
Method: Raffinose cultures of α-syn expressing yeast cells were grown up to the logarithmic phase in raffinose. Cultures were induced with galactose for five hours in the presence or absence of the indication concentration of the compounds. In the present example, the identified compounds were present at a concentration of 10 uM. Cells were centrifuged, media discarded, and then fixed with 4% paraformaldehyde in 1×PBS for 1 hr. The fixed culture was centrifuged, and the pellet resuspended in 0.4% paraformaldehyde in 1×PBS and kept at 4° C.

[2] = system: K63 linkages in human HEK-293 cells; assay: Ubiquitin chain linkages in HEK-293 cells; format: cell-based; conditions: 5 μM for 12 hours, FIG. 13B
Method: (§2) Human HEK-293 or neuronal cells treated with the appropriate compounds, were washed twice with ice cold PBS and then 0.5 ml of Lysis buffer was added and cells were scraped off the 10 cm dish (1 ml for 15 cm).
(§3) Lysis buffer is 50 mM Tris/HCl pH 7.5, 1 mM EGTA, 1 mM EDTA, 0.5 or 1% (v/v) NP-40, 1 mM sodium orthovanadate, 50 mM NaF, 5 mM sodium pyrophosphate, 0.27 M sucrose, 10 mM sodium 2-glycerophosphate, 0.2 mM phenylmethylsulphonyl fluoride, 1 mM benzamidine, plus 100 mM iodoacetamide added fresh prior to lysis (weight powder, don't use a frozen stock solution) to inactivate deubiquitylase activities and add also pepstatin/aprotinin to inhibit proteases. Cell extracts were sonicated twice for 15 seconds each time and clarified by centrifugation at 14000 g for 15 min at 4° C. Supernatants were collected and filtered using a 0.45 uM MiniSart/Syringe. Next, protein concentrations were determined by Bradford procedure.
The avidity based K63 linkage sensor protein was based on Sims et. al, 2012. Briefly, avidity based K63 sensor Halo-fusion protein was expressed in an E. coli expression vector and covalently bound to Halo-tag beads [Magne® HaloTag® Beads, 20% Slurry; Cat #G7281]. […] The eluate is heated at 75° C. for 5 min and analysed by immuno-blotting using an anti-K63 linkage specific antibody (http://www.abcam.com/ubiquitin-linkage-specific-k63-epr8590-448-antibody-ab179434.html). […]

Carboxypeptidase Y (CPY) = assay: Western blot of Carboxypeptidase Y (CPY) trafficking; format: cell-based, yeast; conditions: FIG. 11D
Method: as §1

[3] = system: K63 linkages in iPS derived human neurons; assay: K63-Ub linkages in human iPS derived neuronal cultures (immunoblot); format: cell-based; conditions: 5 μM for 12 hours, FIG. 13A
Method: as §2, §3
The avidity based K63 linkage sensor protein was based on Sims et. al, 2012. Briefly, avidity based K63 sensor Halo-fusion protein was expressed in an E. coli expression vector and covalently bound to Halo-tag beads [Magne® HaloTag® Beads, 20% Slurry; Cat #G7281]. […] After incubation, the beads were washed three times with 1 ml of Lysis buffer containing 500 mM NaCl and once with 0.5 ml of 10 mM Tris/HCl pH 8.0. […] The eluate is heated at 75° C. for 5 min and analysed by immuno-blotting using an anti-K63 linkage specific antibody (http://www.abcam.com/ubiquitin-linkage-specific-k63-epr8590-448-antibody-ab179434.html).
Pure neuronal cultures derived from human iPS cells were treated with DMSO, DES-2877, DES-4114 and #32 at 5 μM for 12 hours. […] Ubiquitylation site identification by mass spectrometry was performed as described Kim et al., (Systematic and quantitative assessment of the ubiquitin-modified proteome. Mol Cell. 2011; 44:325-340). and Sarraf et al., (Landscape of the PARKIN-dependent ubiquitylome in response to mitochondrial depolarization. Nature. 2013; 496:372-376).

[4] = system: α-synuclein-expressing yeast; assay: α-synuclein toxicity rescue in yeast (growth, OD600); format: cell-based; conditions: FIGS. 8A-8B
Method: Yeast Strains and culturing: Yeast strains expressing alpha-synuclein have been described in Cooper at. al, 2006. (Cooper A A, et al. Alpha-synuclein blocks ER-Golgi traffic and Rab1 rescues neuron loss in Parkinson's models. Science. 2006 Jul. 21; 313:324) Strains express multiple copies of alpha-synculein for galactose-inducible expression. […] Yeast were cultured in complete synthetic media (CSM) and an appropriate dropout (lacking histidine or uracil) to maintain plasmids if required. For galactose-induction experiments, overnight cultures were grown in CSM/2% glucose to saturation and diluted 1:20 into CSM/2% raffinose for ˜2 generations. Cultures were then diluted into CSM/2% galactose at an optimum OD600 for the experiment (see ‘Growth assays’).
(§4) Yeast Growth assays: Starting cultures for all dose-response assays were based on strains initially constructed in the lab to maintain homogeneity across experiments. All growth assays were carried out in 384 well format. Source plates were assembled in 96 well plates using multichannel pipettes to dilute rows in 1.6-fold serial dilutions of CSMGal. To these dilution series containing 2× final concentration of compound, 2×OD600 culture (in CSMGal) was dispensed with a multichannel pipette to achieve a final drug/culture mix with the desired OD600 and drug concentration. For WT yeast, the final starting OD600 was 0.01. For α-syn, the final starting OD600 was 0.02. Drug concentration ranges varied depending on efficacy, growth inhibition, and solubility in media. A Tecan EvoFreedom liquid handling robot was then used to transfer culture from 96 to 384 well format with each well being represented four times. Final well volume was 35 μL. Plates were then incubated in humidified containers at 30° C. for either 24 or 40 hours. Plates were then read with a Tecan Saphire plate reader at OD600.
Raw OD600 values were transformed to “Relative Growth” in WT cells or “% Maximum Rescue” in α-syn experiments. In WT cells, the well background was subtracted and all values were then normalized to 100% for the untreated condition. In α-syn rescue experiments, the well background was subtracted and the maximum rescue in the particular experiment was normalized to 100%.

WT control yeast strain = assay: Toxicity profile on WT control yeast strain (growth); format: cell-based; conditions: FIGS. 9A-9B
Method: as §4, with “A Tecan EvoFreedom liquid handling robot was then used to transfer culture from 96 to 384 well format with each well being represented four times. Final well volume was 35 μL. Plates were then incubated in humidified containers at 30° C. for either 24 or 40 hours.” left out
Raw OD600 values were transformed to “Relative Growth” in WT cells or “% Maximum Rescue” in α-syn experiments. […] All experimental data points were then calculated by (OD600Exp−OD600untreated/(OD600Max−OD600untreated)×100 to obtain rescue relative to maximum rescue observed. Dose-response curves were generated by nonlinear regression analysis using Prism Graphpad v. 6.0. In cases where the compounds began inhibiting growth, only points up to the maximum were used to fit the curve. Above that, points were directly connected and are always presented as dotted lines.

COc1cc(Cl)cc(/C=N/Nc2nc(Nc3ccc(C)cc3Br)nc(N3CCOCC3)n2)c1O [DES-4114]
polyubiquitinated Sna3-GFP (Sna3-GFP): increase | morphology: vesicular intermediates in yeast cells [1]: accumulation of vesicular intermediates | K63 linkages in human HEK-293 cells [2]: modest increase | accumulation of CPY trafficking intermediates en route to the vacuole (Carboxypeptidase Y (CPY)): increase | K63 linkages in iPS derived human neurons [3]: modest increase | rescue of aSyn toxicity in yeast (in words) [4]: most effective | toxicity on WT control yeast strain (in words) (WT control yeast strain): least toxic among active analogs
